According to US20250320193A1, “OXOISOINDOLINYL SUBSTITUTED PIPERIDINEDIONE DERIVATIVE AND USE THEREOF” (GLUETACS THERAPEUTICS (SHANGHAI) CO., LTD., priority 2022, published 2025):

target: human Cereblon WT GST-tagged protein (Homo sapiens (Human), UniProt Q96SW2); assay: CRBN-binding affinity, HTRF (CEREBLON BINDING kit, CISBIO); details: HTRF inhibitory activity
Procedure: I. Determination of CRBN-binding affinity of compounds of the present disclosure:
The CEREBLON BINDING kits (specification: 10,000 tests; product number: Catalog #64BDCRBNPEH; CISBIO company) was used to determine the CRBN binding ability of the compounds to be tested through a HTRF method (homogeneous time-resolved fluorescence). The specific methods are as follows: • 1. […] Then, 2.5 μL of human Cereblon WT GST-tagged protein solution was added to each well. Finally, 5 μL of the thoroughly mixed Thalidomide-Red reagent and GST Eu antibody working solution were added to each of the aforementioned wells. […] The blank control wells were sequentially added with 2.5 μL of diluent #9 (1X) solution, 2.5 μL of PROTAC binding buffer, and 5 μL of thoroughly mixed Thalidomide-Red reagent and GST Eu antibody working solution. • 4.
The corresponding CRBN binding inhibition rate was calculated using the following method: […]
OD 620 nmcompound is the absorbance value of each well of the compounds to be tested of the present disclosure at an emission wavelength of 620 nm. […] OD 620 nmcontrol is the absorbance value of the blank control well at an emission wavelength of 620 nm. […] OD 620 nmStd0 is the absorbance value of the solvent control well at an emission wavelength of 620 nm.

human Cereblon WT GST-tagged protein, sequence (Q96SW2 whole entry): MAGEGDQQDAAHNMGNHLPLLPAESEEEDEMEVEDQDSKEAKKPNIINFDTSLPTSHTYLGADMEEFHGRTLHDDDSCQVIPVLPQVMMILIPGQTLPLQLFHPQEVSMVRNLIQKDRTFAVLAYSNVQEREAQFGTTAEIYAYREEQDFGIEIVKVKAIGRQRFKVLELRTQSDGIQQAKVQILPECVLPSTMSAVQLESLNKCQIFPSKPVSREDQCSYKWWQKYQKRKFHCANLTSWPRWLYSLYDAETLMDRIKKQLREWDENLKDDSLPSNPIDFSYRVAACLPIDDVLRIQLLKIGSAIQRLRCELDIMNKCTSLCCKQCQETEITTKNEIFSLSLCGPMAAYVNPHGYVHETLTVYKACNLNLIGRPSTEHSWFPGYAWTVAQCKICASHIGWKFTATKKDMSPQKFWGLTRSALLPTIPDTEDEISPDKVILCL

IC50	Structure (SMILES)
< 500 nM	O=C1CCC(N2Cc3cc(CN4CC5(CCN(C(c6ccccc6)c6ccccc6)CC5)C4)ccc3C2=O)C(=O)N1 (centres unmarked) [GT-05901, 3-(5-((7-benzhydryl-2,7-diazaspiro[3.5]nonan-2-yl)methyl)-1-oxoisoindolin-2-yl)piperidine-2,6-dione]
500 to 1000 nM	O=C1CCC(N2Cc3c(ccc(CN4CC5(CCN(C(c6ccccc6)c6ccccc6)CC5)C4)c3F)C2=O)C(=O)N1 (centres unmarked) [GT-05902, 3-(5-((7-benzhydryl-2,7-diazaspiro[3.5]nonan-2-yl)methyl)-4-fluoro-1-oxoisoindolin-2-yl)piperidine-2,6-dione]
500 to 1000 nM	O=C1CCC(N2Cc3cc(CN4CC5(CCN(C(c6ccccc6)c6ccccc6)CC5)C4)c(F)cc3C2=O)C(=O)N1 (centres unmarked) [GT-05903, 3-(5-((7-benzhydryl-2,7-diazaspiro[3.5]nonan-2-yl)methyl)-6-fluoro-1-oxoisoindolin-2-yl)piperidine-2,6-dione]
500 to 1000 nM	O=C1CCC(N2Cc3cc(CN4CC5(CCN(C(c6ccccc6)c6ccccc6)CC5)C4)cc(F)c3C2=O)C(=O)N1 (centres unmarked) [GT-05904, 3-(5-((7-benzhydryl-2,7-diazaspiro[3.5]nonan-2-yl)methyl)-7-fluoro-1-oxoisoindolin-2-yl)piperidine-2,6-dione]
500 to 1000 nM	CC1CN(C(c2ccccc2)c2ccccc2)CC(C)N1C(=O)c1cc(F)c2c(c1)CN(C1CCC(=O)NC1=O)C2=O (centres unmarked) [GT-05921, 3-(5-(4-benzhydryl-2,6-dimethylpiperazine-1-carbonyl)-7-fluoro-1-oxoisoindolin-2-yl)piperidine-2,6-dione]
500 to 1000 nM	O=C1CCC(N2C(=O)c3cc(F)c(N4CC5CCC4CN5C(c4ccccc4)c4ccccc4)cc3C2=O)C(=O)N1 (centres unmarked) [GT-05936, 5-(5-benzhydryl-2,5-diazabicyclo[2.2.2]octan-2-yl)-2-(2,6-dioxopiperidin-3-yl)-6-fluoroisoindoline-1,3-dione]
500 to 1000 nM	O=C1CCC(N2Cc3cc(CN4C[C@H]5C[C@@H]4CN5C(c4ccccc4)c4ccccc4)c(F)cc3C2=O)C(=O)N1 (stereo partly drawn) [GT-05958, 3-(5-(((1R,4R)-5-benzhydryl-2,5-diazabicyclo[2.2.1]heptan-2-yl)methyl)-6-fluoro-1-oxoisoindolin-2-yl)piperidine-2,6-dione]
500 to 1000 nM	O=C1CCC(N2Cc3cc(CN4CC5CCC4CN5C(c4ccccc4)c4ccccc4)cc(F)c3C2=O)C(=O)N1 (centres unmarked) [GT-05964, 3-(5-((5-benzhydryl-2,5-diazabicyclo[2.2.2]octan-2-yl)methyl)-7-fluoro-1-oxoisoindolin-2-yl)piperidine-2,6-dione]
1000 to 1900 nM	O=C1CCC(N2Cc3cc(CN4CCC5(CCN(C(c6ccccc6)c6ccccc6)CC5)C4)ccc3C2=O)C(=O)N1 (centres unmarked) [GT-05969, 3-(5-((8-benzhydryl-2,8-diazaspiro[4.5]decan-2-yl)methyl)-1-oxoisoindolin-2-yl)piperidine-2,6-dione]
1000 to 1900 nM	O=C1CCC(N2Cc3cc(CN4CCC5(CCN(C(c6ccccc6)c6ccccc6)CC5)C4)cc(F)c3C2=O)C(=O)N1 (centres unmarked) [GT-05972, 3-(5-((8-benzhydryl-2,8-diazaspiro[4.5]decan-2-yl)methyl)-7-fluoro-1-oxoisoindolin-2-yl)piperidine-2,6-dione]
500 to 1000 nM	O=C1CCC(N2Cc3cc(C(=O)N4C[C@@H]5C[C@H]4CN5C(c4ccccc4)c4ccccc4)ccc3C2=O)C(=O)N1 (stereo partly drawn) [GT-05977, 3-(5-((1S,4S)-5-benzhydryl-2,5-diazabicyclo[2.2.1]heptane-2-carbonyl)-1-oxoisoindolin-2-yl)piperidine-2,6-dione]
1000 to 1900 nM	O=C1CCC(N2Cc3cc(C(=O)N4C[C@@H]5C[C@H]4CN5C(c4ccccc4)c4ccccc4)cc(F)c3C2=O)C(=O)N1 (stereo partly drawn) [GT-05978, 3-(5-((1S,4S)-5-benzhydryl-2,5-diazabicyclo[2.2.1]heptane-2-carbonyl)-7-fluoro-1-oxoisoindolin-2-yl)piperidine-2,6-dione]
500 to 1000 nM	O=C1CCC(N2Cc3c(C(=O)N4CCN(C(c5ccc(Cl)cc5)c5ccc(Cl)cc5)CC4)cccc3C2=O)C(=O)N1 (centres unmarked) [GT-05985, 3-(4-(4-(bis(4-chlorophenyl)methyl)piperazine-1-carbonyl)-1-oxoisoindolin-2-yl)piperidine-2,6-dione]
< 500 nM	O=C1CCC(N2Cc3cc(C(=O)N4C[C@H]5C[C@@H]4CN5C(c4ccccc4)c4ccccc4)ccc3C2=O)C(=O)N1 (stereo partly drawn) [GT-05990, 3-(5-((1R,4R)-5-benzhydryl-2,5-diazabicyclo[2.2.1]heptane-2-carbonyl)-1-oxoisoindolin-2-yl)piperidine-2,6-dione]
< 500 nM	O=C1CCC(N2Cc3cc(C(=O)N4C[C@H]5C[C@@H]4CN5C(c4ccccc4)c4ccccc4)cc(F)c3C2=O)C(=O)N1 (stereo partly drawn) [GT-05991, 3-(5-((1R,4R)-5-benzhydryl-2,5-diazabicyclo[2.2.1]heptane-2-carbonyl)-7-fluoro-1-oxoisoindolin-2-yl)piperidine-2,6-dione]
500 to 1000 nM	O=C1CCC(N2Cc3cc(CN4CCC5(CC4)CCN(C(c4ccccc4)c4ccccc4)CC5)ccc3C2=O)C(=O)N1 (centres unmarked) [GT-06002, 3-(5-((9-benzhydryl-3,9-diazaspiro[5.5]undecan-3-yl)methyl)-1-oxoisoindolin-2-yl)piperidine-2,6-dione]
500 to 1000 nM	O=C1CCC(N2Cc3c(ccc(CN4CCC5(CC4)CCN(C(c4ccccc4)c4ccccc4)CC5)c3F)C2=O)C(=O)N1 (centres unmarked) [GT-06024, 3-(5-((9-benzhydryl-3,9-diazaspiro[5.5]undecan-3-yl)methyl)-4-fluoro-1-oxoisoindolin-2-yl)piperidine-2,6-dione]
500 to 1000 nM	O=C1CCC(N2Cc3cc(CN4CCC5(CC4)CCN(C(c4ccccc4)c4ccccc4)CC5)c(F)cc3C2=O)C(=O)N1 (centres unmarked) [GT-06025, 3-(5-((9-benzhydryl-3,9-diazaspiro[5.5]undecan-3-yl)methyl)-6-fluoro-1-oxoisoindolin-2-yl)piperidine-2,6-dione]
500 to 1000 nM	O=C1CCC(N2Cc3cc(CN4CCC5(CC4)CCN(C(c4ccccc4)c4ccccc4)CC5)cc(F)c3C2=O)C(=O)N1 (centres unmarked) [GT-06026, 3-(5-((9-benzhydryl-3,9-diazaspiro[5.5]undecan-3-yl)methyl)-7-fluoro-1-oxoisoindolin-2-yl)piperidine-2,6-dione]
< 500 nM	O=C1CCC(N2Cc3cc(C(=O)N4CC5CCC4CN5C(c4ccccc4)c4ccccc4)ccc3C2=O)C(=O)N1 (centres unmarked) [GT-06056, 3-(5-(5-benzhydryl-2,5-diazabicyclo[2.2.2]octane-2-carbonyl)-1-oxoisoindolin-2-yl)piperidine-2,6-dione]
< 500 nM	O=C1CCC(N2Cc3cc(C(=O)N4CC5CCC4CN5C(c4ccccc4)c4ccccc4)cc(F)c3C2=O)C(=O)N1 (centres unmarked) [GT-06057, 3-(5-(5-benzhydryl-2,5-diazabicyclo[2.2.2]octane-2-carbonyl)-7-fluoro-1-oxoisoindolin-2-yl)piperidine-2,6-dione]
< 500 nM	CC1CN(C(=O)c2ccc3c(c2)CN(C2CCC(=O)NC2=O)C3=O)CC(C)N1C(c1ccccc1)c1ccccc1 (centres unmarked) [GT-06059, 3-(5-(4-benzhydryl-3,5-dimethylpiperazine-1-carbonyl)-1-oxoisoindolin-2-yl)piperidine-2,6-dione]
500 to 1000 nM	CC1CN(C(=O)c2cc(F)c3c(c2)CN(C2CCC(=O)NC2=O)C3=O)CC(C)N1C(c1ccccc1)c1ccccc1 (centres unmarked) [GT-06060, 3-(5-(4-benzhydryl-3,5-dimethylpiperazine-1-carbonyl)-7-fluoro-1-oxoisoindolin-2-yl)piperidine-2,6-dione]
500 to 1000 nM	CC1(C)CN(C(=O)c2cc(F)c3c(c2)CN(C2CCC(=O)NC2=O)C3=O)CCN1C(c1ccccc1)c1ccccc1 (centres unmarked) [GT-06062, 3-(5-(4-benzhydryl-3,3-dimethylpiperazine-1-carbonyl)-7-fluoro-1-oxoisoindolin-2-yl)piperidine-2,6-dione]

Structure (SMILES)	IC50
O=C1CCC(N2Cc3cc(C(=O)N4C5CC4CN(C(c4ccccc4)c4ccccc4)C5)cc(F)c3C2=O)C(=O)N1 (centres unmarked) [GT-05916, 3-(5-(3-benzhydryl-3,6-diazabicyclo[3.1.1]heptane-6-carbonyl)-7-fluoro-1-oxoisoindolin-2-yl)piperidine-2,6-dione]	< 500 nM
O=C1CCC(N2C(=O)c3ccc(C(=O)N4C5CC4CN(C(c4ccccc4)c4ccccc4)C5)cc3C2=O)C(=O)N1 (centres unmarked) [GT-05918, 5-(3-benzhydryl-3,6-diazabicyclo[3.1.1]heptane-6-carbonyl)-2-(2,6-dioxopiperidin-3-yl) isoindoline-1,3-dione]	1000 to 1900 nM
O=C1CCC(N2Cc3cc(C(=O)N4CC5CCC(C4)N5C(c4ccccc4)c4ccccc4)cc(F)c3C2=O)C(=O)N1 (centres unmarked) [GT-05981, 3-(5-(8-benzhydryl-3,8-diazabicyclo[3.2.1]octane-3-carbonyl)-7-fluoro-1-oxoisoindolin-2-yl)piperidine-2,6-dione]	500 to 1000 nM
O=C1CCC(N2Cc3cc(C(=O)N4C5CCC4CN(C(c4ccccc4)c4ccccc4)C5)ccc3C2=O)C(=O)N1 (centres unmarked) [GT-05983, 3-(5-(3-benzhydryl-3,8-diazabicyclo[3.2.1]octane-8-carbonyl)-1-oxoisoindolin-2-yl)piperidine-2,6-dione]	500 to 1000 nM
O=C1CCC(N2Cc3cc(C(=O)N4C5CCC4CN(C(c4ccccc4)c4ccccc4)C5)cc(F)c3C2=O)C(=O)N1 (centres unmarked) [GT-06055, 3-(5-(3-benzhydryl-3,8-diazabicyclo[3.2.1]octane-8-carbonyl)-7-fluoro-1-oxoisoindolin-2-yl)piperidine-2,6-dione]	< 500 nM
